Measurements as given in patent US20130116291A1, “ASSOCIATION OF XANTHINE OXIDASE INHIBITORS AND STATINS AND USE THEREOF” (Menarini International Operations Luxembourg S.A., priority 2010, published 2013).

Tested on: Wistar rats subjected to a cholesterol-rich (2%) diet
Experiment: Hypocholesterolemic activity in rats on a cholesterol-rich diet (plasma total cholesterol)
Type: in vivo, rat
Details: for Diminution of plasma total cholesterol in rats: cholesterol-rich (2%) diet
Protocol: Plasma levels of total cholesterol were measured with a standard colorimetric enzymatic method. […] Plasma levels of total cholesterol were determined at one-week intervals. Blood was collected from a tail vein.

Structure (SMILES) | Diminution of plasma total cholesterol in rats (1 mg/Kg orally by gavage once per day for 4 weeks) | Diminution of plasma total cholesterol in rats (5 mg/Kg orally by gavage once per day for 4 weeks) | Diminution of plasma total cholesterol in rats ([…] orally by gavage once per day for 4 weeks) | Effect on cholesterol levels in the 4 weeks of observation (highest dose, 5 mg/kg per day, per os, Wistar rats, cholesterol-rich diet) | Reduction of the cholesterolemia values (in words) (doses of 5 and 10 mg/kg, starting from the first week of treatment) | Maximum reduction of the cholesterolemia values (highest dose (10 mg/kg, as calcium salt, per os daily), peak at 2 weeks, constant in the successive weeks)
Cc1nc(-c2ccc(OCC(C)C)c(C#N)c2)sc1C(=O)O [Febuxostat, febuxostat] | No diminution | No diminution | No diminution | did not significantly modify | – | –
CC(C)c1c(C(=O)Nc2ccccc2)c(-c2ccccc2)c(-c2ccc(F)cc2)n1CC[C@@H](O)C[C@@H](O)CC(=O)O [Atorvastatin, atorvastatin] | – | – | – | – | significant and dose-dependent reduction | 80%
